We go through eight molecules from PubChem BioAssay (NCI).

What all share (assay): inhibition of tumour cell growth, NCI panel, 48 h
In experiment [1] the test system is T-47D breast.
The test system of experiment [2] is BT-549 breast.
In experiment [3] the test system is HCT-116 colon.
Experiment [4] concerns COLO 205 colon.
Experiment [5] relates to IGROV1 ovarian.
In experiment [6] the test system is MOLT-4 leukemia.
For experiment [7], the system named is SW-620 colon.
For experiment [8], the system named is HCT-15 colon.
In experiment [9] the test system is 786-0 renal.
The test system of experiment [10] is SK-OV-3 ovarian.
Experiment [11] relates to NCI-H460 lung.
Experiment [12] deals with ACHN renal.
The subject of experiment [13] is SF-268 CNS.
For experiment [14], the system named is UO-31 renal.
Experiment [15] deals with SK-MEL-28 melanoma.
The subject of experiment [16] is OVCAR-5 ovarian.
Experiment [17] deals with MDA-MB-435.
For experiment [18], the system named is HS 578T breast.

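Assay format: 96-well plates, 48-hour exposure. The concentration for full growth arrest is given as TGI.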

Take `CC(=O)O[C@@]12CO[C@@H]1C[C@@H](O)[C@@]1(C)C(=O)[C@H](O)C3=C(C)[C@@H](OC(=O)[C@H](O)[C@@H](NC(=O)c4ccccc4)c4ccccc4)C[C@@](O)([C@@H](OC(=O)c4ccccc4)C12)C3(C)C` (stereo not given in full): the TGI in experiment [1] is greater than 100 µM; in [2] it was greater than 100 µM; in experiment [3], 0.152 µM; in experiment [4] it was 0.176 µM; in experiment [5], greater than 100 µM; in experiment [6] it was greater than 42.5 µM. For the same molecule, the TGI in [7] is greater than 100 µM; in experiment [8], greater than 100 µM; in [9], greater than 100 µM; in experiment [10] it was greater than 100 µM; in experiment [11], 25.1 µM; in [12] it was 57 µM. Besides, the TGI in [13] was greater than 100 µM; in [14], greater than 78.8 µM; in [15] it was greater than 100 µM.
For the molecule `O=C(NNC(=S)NCc1ccccc1)c1csc(NC(=S)NC2CCCCC2)n1`, the TGI in experiment [1] is 95.4 µM; in experiment [2], greater than 100 µM; in [3], 72.3 µM; in experiment [4] it was 49.6 µM; in [5], greater than 100 µM; in [6] it was greater than 100 µM. Moreover, the TGI in experiment [16] is greater than 100 µM; in [7] it was greater than 100 µM; in experiment [8], greater than 100 µM; in experiment [9], greater than 100 µM; in [17] it was 82.9 µM; in [10] it was greater than 100 µM. The results for the TGI in experiment [12], in experiment [13] and in experiment [14] were greater than 100 µM, greater than 100 µM and 58.2 µM, respectively.
Regarding `O=S1(=O)OCCOS(=O)(=O)C1Cc1cccc2ccccc12`, the TGI in experiment [1] is greater than 100 µM; in experiment [18], 84.9 µM; in experiment [3], 48.3 µM; in experiment [4], 29.2 µM; in [5] it was 28.6 µM; in experiment [6], 65.9 µM. For the same molecule, the TGI in [16] is 60.9 µM; in experiment [7] it was greater than 100 µM; in experiment [8], 87.1 µM; in [9] it was 54.8 µM; in experiment [17], 32 µM; in experiment [10], 70.7 µM. Further, the TGI in [11] stood at 35.4 µM; in experiment [12], 99.6 µM; in experiment [13], 57.8 µM; in [14], 48.8 µM; in [15], 21.5 µM.
Consider `CCOc1ccccc1-c1nc2c(s1)C(=O)c1ccccc1C2=O`, for which the TGI in experiment [1] was 63.9 µM; in [18], 62.3 µM; in experiment [3], 29.3 µM; in experiment [4], 58.9 µM; in experiment [5], 27.7 µM; in experiment [6], greater than 100 µM. In addition, the TGI in [16] is 40.1 µM; in experiment [7], 23.4 µM; in experiment [8], greater than 100 µM; in [9], 30.5 µM; in [17], 4.31 µM; in experiment [10] it was 28.2 µM. The TGI amounted to 39.2 µM in experiment [11]; 29.2 µM in experiment [12]; 29 µM in experiment [13]; 25.4 µM in experiment [14]; 30.4 µM in experiment [15].
With `CCN(CCCl)c1cc(CN(C)C)cc(NC(=O)C23CCC(C(=O)Nc4cc(CN(C)C)cc(N(CC)CCCl)c4)(CC2)CC3)c1`, the TGI in [1] stood at 19.2 µM; in experiment [18], 2.53 µM; in experiment [3] it was 5.33 µM; in [4], 2.81 µM; in experiment [5] it was 3.28 µM; in experiment [6], 0.503 µM. The TGI in experiment [16] was 10.4 µM; in experiment [7], 1.65 µM; in experiment [8] it was 26.4 µM; in experiment [9] it was 1 µM; in [17], 3.08 µM; in experiment [10], 4.24 µM. The TGI in [11] turned out to be 2.17 µM; in [12] it was 9.22 µM; in [13] it was 16 µM; in experiment [14], 30.9 µM; in experiment [15], 3.55 µM.
Consider `O=C1NC(N2CCCCC2)=N/C1=C\c1ccc(Cl)cc1`, for which the TGI in experiment [1] is greater than 100 µM; in [18] it was greater than 100 µM; in [2], greater than 100 µM; in experiment [3], 92.7 µM; in [4] it was greater than 100 µM; in [5] it was greater than 100 µM. The TGI in experiment [6] is greater than 100 µM; in experiment [16], greater than 100 µM; in experiment [7], greater than 100 µM; in [8], greater than 100 µM; in experiment [9] it was 79.9 µM; in experiment [17], greater than 100 µM. Also, the TGI in [10], in [12], in experiment [13], in experiment [14] and in [15] was greater than 100 µM each time.
With `CC(C)(C)OC(=O)NCCNCCNc1ccccc1`, the TGI in experiment [1], in experiment [2], in [3], in experiment [4], in [5] and in experiment [6] was greater than 100 µM throughout. For the same molecule, the TGI in experiment [16], in [7], in experiment [8], in experiment [9], in [17] and in experiment [10] was greater than 100 µM each time. For the same molecule, the TGI in [11], in experiment [12], in experiment [14] and in experiment [15] was greater than 100 µM in each case.
On to `CCOC(=O)c1cc(Br)c(-c2cc(C)no2)[nH]1`, for which the TGI in experiment [1] was greater than 100 µM; in experiment [2], greater than 100 µM; in experiment [3], greater than 100 µM; in [4], 34.8 µM; in [6], greater than 100 µM; in experiment [16] it was greater than 100 µM. Moreover, the TGI is greater than 100 µM in [7]; greater than 100 µM in experiment [8]; greater than 100 µM in experiment [9]; 38.8 µM in experiment [17]; greater than 100 µM in [10]; 55 µM in [11]. In addition, the TGI in experiment [12], in [13], in [14] and in experiment [15] was greater than 100 µM throughout.
